{"source": "patent US7282339B2", "about": "“Competitive immunoassay” (Invitrogen Corporation, priority 2003, dated 2007)", "key": {"[1]": {"tested_on": "P-Tyr-100 antiphosphotyrosine monoclonal antibody", "experiment": "Ligand analog screening: fluorescence intensity and polarization vs P-Tyr-100 antibody concentration (Examples 22, 24)", "format": "binding, mouse", "conditions": "for Fmax/Fmin: ratio of fluorescence intensity at lowest (Fmax) to highest (Fmin) antibody concentration, 50 nM ligand analog, P-Tyr-100 0.8 to 500 nM, ex/em 480/535 nm", "description": "Solutions of test compounds (100 nM) were prepared were prepared in 50 mM Tris-HCl pH 7.5, 10 mM MgCl2, 0.01% Brij-35, 500 μM ATP, 2 mM DTT, 1 mM EGTA. 20 μl aliquots of these solutions were pipetted into the wells of a 384-well microplate. 20 μl aliquots of a serially-diluted […] stock solution of P-Tyr-100 antiphosphotyrosine monoclonal antibody (Cell Signaling Technology, Beverly, Mass.) were added to the wells. The resulting samples contained 50 nM of each ligand analog (Compounds 15, 7, 8, 9, 18 and 19) and antibody concentrations ranging from 0.8 to 500 nM. Fluorescence polarization and intensity of the samples was measured on an EnVision microplate reader (PerkinElmer Life Sciences) using excitation/emission filter settings of 480/535 nm. Increasing fluorescence polarization as a function of antibody concentration (A) provides confirmation of ligand analog binding to the antibody. […] Phosphotyrosine peptide, target ligand, (phospho-pp60 c-src (521-533); TSTEPQY*QPGENL, Bachem California, Inc. Torrance, Calif.) was then added to all samples at a concentration of 10 μM and the fluorescence intensity and polarization measurements were repeated (C, D). […] Displacement of the ligand analogs from antibody is confirmed by depolarization of fluorescence (D compared to A). […] See, FIG. 14.\nCompound 12 and Compound 13 were assessed for efficacy using the methods described in Example 22. […] Samples containing 100 nM of Compound 13 and additional components identified in the figure legend were prepared in 50 mM Tris-HCl pH 7.5, 10 mM MgCl2, 0.01% Brij-35, 100 μM ATP, 2 mM DTT, 1 mM EGTA. 100 μL volumes of these samples were transferred to microcuvettes. The fluorescence emission spectrum was recorded for each sample using a Hitachi F-4500 spectrofluorometer (excitation wavelength=520 nm). See, FIG. 15"}, "[2]": {"tested_on": "Rabbit anti-Akt polyclonal antibody", "experiment": "Binding of ethanolamine phosphate ligand analog by anti-Akt antibody (Example 10)", "conditions": "50 nM compound, antibody zero to 250 nM", "description": "A 5 mM solution of BODIPY FL ethanolamine phosphate Compound 2 was made in water. A 2.5 mM solution of BODIPY FL ethanolamine (Compound 1) was made in 50% (v/v) DMSO, See Example 1. Rabbit anti-Akt polyclonal antibody (Cell Signaling Technology, catalog # 9611) was serially diluted in 5 μl 50 mM Tris buffer, pH 7.5 in a black, 384-well flat-bottom Packard ProxiPlate preblocked with 0.25% (v/v) Mowiol. After the antibody was serially diluted in the plate, 5 μl of either Compound 2 or Compound 1 was added to the same wells. The final concentration of both compounds in the wells was each 50 nM. The final antibody concentration in the wells was zero to 250 nM. The fluorescence intensity was measured on an EnVision microplate reader (Perkin Elmer), PMT 1 gain 155, PMT 2 gain 191, excitation light 76%, 100 flashes at 9 mM height."}, "[3]": {"tested_on": "Compound 15+P-Tyr-100 complex", "experiment": "Displacement of phosphotyramide ligand analog by phosphotyrosine peptide but not by ATP (Example 17)", "format": "binding, mouse", "conditions": "zero to 1 mM ATP", "description": "A 5 mM solution of Compound 15 was prepared in water. Separate reactions of 100 nM Compound 15+/−100 nM P-Tyr-100 (Cell Signaling Technology, catalog # 9411) complexes were made in kinase buffer with various amounts of ATP (50 mM Tris, pH 7.5, 10 mM MgCl2, 1 mM EGTA, 0.01% Brij 35, 2 mM DTT, with zero, 0.1, 0.25, 0.5, or 1 mM ATP). The fluorescence emission of each of the ten solutions was measured using a Hitachi F-4500 spectrofluorometer (Ex 450, Em 510, slit width 5 nm for both wavelengths, PMT gain 700 V). After the initial read, 10 μM phospho-pp60 c-src (10 μM final concentration) peptide (521-533) (TSTEPQY*QPGENL) (Bachem, catalog # H-3258) in kinase buffer was added to the antibody:ligand reactions, and the resulting fluorescence intensity was measured on the same instrument at the same settings."}}, "data": [{"compound": "O=C(NCCc1ccc(OP(=O)(O)O)cc1)c1ccc(-c2c3ccc(=O)cc-3oc3cc(O)ccc23)c(C(=O)O)c1", "note": "[Compound 8, 5-FAM phosphotyramide]", "values": [{"measurement": "performance in displacement assay, 6-position vs 5-position", "setting": "[1]; fluorescence intensity readout", "result": "superior performance"}, {"measurement": "Fmax/Fmin", "setting": "[1]", "result": 1.3}]}, {"compound": "BODIPY FL ethanolamine phosphate [Compound 2]", "values": [{"measurement": "quenching of ligand analog when bound by the antibody", "setting": "[2]", "result": "slightly quenched"}]}, {"compound": "CN(C)c1ccc2c(-c3cc(C(=O)NCCc4ccc(OP(=O)([O-])O)cc4)ccc3C(=O)O)c3ccc(=[N+](C)C)cc-3oc2c1", "note": "[Compound 12]", "values": [{"measurement": "fluorescence intensity change on antibody binding", "setting": "[1]; methods of Example 22", "result": "little or no analytically useful fluorescence intensity change"}, {"measurement": "fluorescence polarization change on antibody binding", "setting": "[1]; methods of Example 22", "result": "large fluorescence polarization changes"}]}, {"compound": "O=C(CSc1c(F)c(F)c(C(=O)O)c(-c2c3cc(F)c(=O)cc-3oc3cc(O)c(F)cc23)c1F)NCCc1ccc(OP(=O)(O)O)cc1", "note": "[Compound 7, Oregon Green 514 phosphotyramide]", "values": [{"measurement": "Fmax/Fmin", "setting": "[1]", "result": 4.0}]}, {"compound": "Nc1ncnc2c1ncn2[C@@H]1O[C@H](COP(=O)(O)OP(=O)(O)OP(=O)(O)O)[C@@H](O)[C@H]1O", "note": "[ATP]", "values": [{"measurement": "displacement of the phosphotyramide ligand analog", "setting": "[3]", "result": "does not displace"}]}, {"compound": "O=C(NCCc1ccc(OP(=O)(O)O)cc1)c1ccc(C(=O)O)c(-c2c3ccc(=O)cc-3oc3cc(O)ccc23)c1", "note": "[Compound 9, 6-FAM phosphotyramide]", "values": [{"measurement": "binding affinity for the antibody, 6-isomer compared to 5-isomer", "setting": "[1]; compared to Compound 8", "result": "increased binding affinity"}, {"measurement": "quenching by the antibody, 6-isomer compared to 5-isomer", "setting": "[1]; compared to Compound 8", "result": "increased quenching"}, {"measurement": "Fmax/Fmin", "setting": "[1]", "result": 3.2}]}, {"compound": "O=C(O)c1cc(NC(=S)NCCc2ccc(OP(=O)(O)O)cc2)ccc1-c1c2ccc(=O)cc-2oc2cc(O)ccc12", "note": "[Compound 18, 5-FITC phosphotyramide]", "values": [{"measurement": "Fmax/Fmin", "setting": "[1]", "result": 1.7}]}, {"compound": "6-FITC phosphotyramide [Compound 19]", "values": [{"measurement": "Fmax/Fmin", "setting": "[1]", "result": 1.6}]}]}
